# Several values for one entry are separate records, joined by “and”; a condition that tells them apart may be missing. Equal entries are not always repeated. Where two headings read alike, the source gives them in different places.
# Assays:
# SK1 isolate of HIV-1 = settings: for p24 VALUES, single samples: samples 1-3; for IC50 (inhibition of cell-cell transmission): linear regression
# Excerpt: (§1) ME180 cells, a cervical epithelial cell line, were obtained from the American Type Culture Collection. These cells were thawed from liquid nitrogen and grown in RPMI 1640 medium supplemented with 10t fetal bovine serum, glutamine and antibiotics. The cells were adherent and were trypsinized (0.5% trypsin in HBSS) to remove them from the flask for passaging and use in assays. For use in the microtiter transmission inhibition assay, ME180 cells were trypsinized, washed and seeded in 96-well flat bottom microtiter plates (COSTAR) at a density of 5×10^3 cells per well. The cells were incubated at 37° C. for 24 hours prior to the tart of the assay. H9 cells chronically infected with he SK1 isolate of HIV-1 were treated with 200 μg/ml mitomycin C for 60 minutes at 37° C. After treatment the cells were washed three times with tissue culture medium. The chronically infected lymphocytes were added to each well at a density of 2×10^4 cells per well. The concentration of mitomycin C used in the treatment of the lymphocytes was chosen to allow lymphocyte survival for the period of time required to transmit virus to the uninfected ME180 cells, but to die prior to the time of assay so as not to contribute to the p24 signal used as the endpoint (see below). In the transmission assay the lytic peptides D4E1 and D2A21, with and without 150 μg/ml pig mucin, were added prior to the addition of chronically infected cells or were mixed with the chronically infected cells prior to their addition to the monolayer of ME180 cells. Mucin was included because it is an abundant constituent of the normal vaginal secretions of a human being, thus any chemotherapeutic agent targeting HIV should be active in its presence if it is to have clinical value. […] The lymphocytes and peptide were co-cultured with the ME180 cells for 6 hours and then removed by washing the ME180 monolayer four times with PBS. The plate was then incubated at 37° C. for six days. Medium was removed and changed every 48 hours during the incubation stage. No further peptide was added after the initial dose. At six days post-co-cultivation, the supernatant was removed from the wells and evaluated for the quantity of p24 antigen by ELISA. The ELISA was performed according to the manufacturer's recommendations. The amount of virus production in wells treated with various concentrations of the peptides was evaluated with appropriate cell and virus controls. Data are reported as a percent of virus control at each drug concentration. Linear regression analysis was used to calculate the […] and IC95 concentrations of the transmission inhibitor. […] TI represents the toxicity index, which is the ratio of the TC50/IC50, and is an indication of the relative concentrations window that exists between efficacy and toxicity.
# ME180 cells = test: toxicity (XTT) in transmission inhibition assay; settings: for TOXICITY VALUES (XTT), single samples: samples 1-3; for TC50 (concentration at which 50% of cells are eliminated): interpolation from % CC
# Excerpt: as §1
# [1] = 0.32 μg/ml, with 150 μg/ml pig mucin
# [2] = 1 μg/ml, with 150 μg/ml pig mucin
# [3] = 3.2 μg/ml, with 150 μg/ml pig mucin
# [4] = 10 μg/ml, with 150 μg/ml pig mucin
# [5] = 32 μg/ml, with 150 μg/ml pig mucin
# [6] = 100 μg/ml, with 150 μg/ml pig mucin
substance,measurement,setting,value
dextran sulfate,"% VC (p24, percent of virus control)","SK1 isolate of HIV-1; 0.32 μg/ml, no mucin",5.9%
same,"p24 VALUES, MEAN","SK1 isolate of HIV-1; 0.32 μg/ml, no mucin",3.2 µg/mL
same,"% VC (p24, percent of virus control)",SK1 isolate of HIV-1; [1],7.7%
same,"p24 VALUES, MEAN",SK1 isolate of HIV-1; [1],4.5 µg/mL
same,"p24 VALUES, single samples",SK1 isolate of HIV-1; [1],5.0 µg/mL and 3.2 µg/mL and 6.1 µg/mL
same,"% VC (p24, percent of virus control)","SK1 isolate of HIV-1; 1 μg/ml, no mucin",7.6%
same,"p24 VALUES, MEAN","SK1 isolate of HIV-1; 1 μg/ml, no mucin",4.1 µg/mL
same,"% VC (p24, percent of virus control)",SK1 isolate of HIV-1; [2],7.8%
same,"p24 VALUES, MEAN",SK1 isolate of HIV-1; [2],4.9 µg/mL
same,"% VC (p24, percent of virus control)","SK1 isolate of HIV-1; 3.2 μg/ml, no mucin",0.0%
same,"p24 VALUES, MEAN","SK1 isolate of HIV-1; 3.2 μg/ml, no mucin",0.0 µg/mL
same,"p24 VALUES, single samples","SK1 isolate of HIV-1; 3.2 μg/ml, no mucin",0.0 µg/mL
same,"% VC (p24, percent of virus control)",SK1 isolate of HIV-1; [3],11.4%
same,"p24 VALUES, MEAN",SK1 isolate of HIV-1; [3],7.1 µg/mL
same,"% VC (p24, percent of virus control)","SK1 isolate of HIV-1; 10 μg/ml, no mucin",0.2%
same,"p24 VALUES, MEAN","SK1 isolate of HIV-1; 10 μg/ml, no mucin",0.0 µg/mL
same,"% VC (p24, percent of virus control)",SK1 isolate of HIV-1; [4],11.6%
same,"p24 VALUES, MEAN",SK1 isolate of HIV-1; [4],7.2 µg/mL
same,"% VC (p24, percent of virus control)","SK1 isolate of HIV-1; 32 μg/ml, no mucin",0.0%
same,"p24 VALUES, MEAN","SK1 isolate of HIV-1; 32 μg/ml, no mucin",0.0 µg/mL
same,"p24 VALUES, single samples","SK1 isolate of HIV-1; 32 μg/ml, no mucin",0.0 µg/mL
same,"% VC (p24, percent of virus control)",SK1 isolate of HIV-1; [5],14.6%
same,"p24 VALUES, MEAN",SK1 isolate of HIV-1; [5],9.0 µg/mL
same,"% VC (p24, percent of virus control)","SK1 isolate of HIV-1; 100 μg/ml, no mucin",0.0%
same,"p24 VALUES, MEAN","SK1 isolate of HIV-1; 100 μg/ml, no mucin",0.0 µg/mL
same,"p24 VALUES, single samples","SK1 isolate of HIV-1; 100 μg/ml, no mucin",0.0 µg/mL
same,"% VC (p24, percent of virus control)",SK1 isolate of HIV-1; [6],8.0%
same,"p24 VALUES, MEAN",SK1 isolate of HIV-1; [6],4.9 µg/mL
same,IC50 (inhibition of cell-cell transmission),SK1 isolate of HIV-1; no mucin,IC50 = 0.002 μg/ml
same,IC50 (inhibition of cell-cell transmission),SK1 isolate of HIV-1; with 150 μg/ml pig mucin,IC50 = 0.002 μg/ml
same,"% CC (XTT, percent of cell control)","ME180 cells; 0.32 μg/ml, no mucin",95.4%
same,"TOXICITY VALUES (XTT), MEAN","ME180 cells; 0.32 μg/ml, no mucin",0.485 O.D. @ 450/650 nm
same,"TOXICITY VALUES (XTT), single samples","ME180 cells; 0.32 μg/ml, no mucin",0.477 O.D. @ 450/650 nm and 0.473 O.D. @ 450/650 nm and 0.504 O.D. @ 450/650 nm
same,"% CC (XTT, percent of cell control)",ME180 cells; [1],95.4%
same,"TOXICITY VALUES (XTT), MEAN",ME180 cells; [1],0.485 O.D. @ 450/650 nm
same,"TOXICITY VALUES (XTT), single samples",ME180 cells; [1],0.477 O.D. @ 450/650 nm and 0.473 O.D. @ 450/650 nm and 0.504 O.D. @ 450/650 nm
same,"% CC (XTT, percent of cell control)","ME180 cells; 1 μg/ml, no mucin",98.4%
same,"TOXICITY VALUES (XTT), MEAN","ME180 cells; 1 μg/ml, no mucin",0.500 O.D. @ 450/650 nm
same,"TOXICITY VALUES (XTT), single samples","ME180 cells; 1 μg/ml, no mucin",0.479 O.D. @ 450/650 nm and 0.519 O.D. @ 450/650 nm and 0.501 O.D. @ 450/650 nm
same,"% CC (XTT, percent of cell control)",ME180 cells; [2],98.4%
same,"TOXICITY VALUES (XTT), MEAN",ME180 cells; [2],0.500 O.D. @ 450/650 nm
same,"TOXICITY VALUES (XTT), single samples",ME180 cells; [2],0.479 O.D. @ 450/650 nm and 0.519 O.D. @ 450/650 nm and 0.501 O.D. @ 450/650 nm
same,"% CC (XTT, percent of cell control)","ME180 cells; 3.2 μg/ml, no mucin",91.5%
same,"TOXICITY VALUES (XTT), MEAN","ME180 cells; 3.2 μg/ml, no mucin",0.465 O.D. @ 450/650 nm
same,"TOXICITY VALUES (XTT), single samples","ME180 cells; 3.2 μg/ml, no mucin",0.483 O.D. @ 450/650 nm and 0.456 O.D. @ 450/650 nm and 0.457 O.D. @ 450/650 nm
same,"% CC (XTT, percent of cell control)",ME180 cells; [3],91.6%
same,"TOXICITY VALUES (XTT), MEAN",ME180 cells; [3],0.465 O.D. @ 450/650 nm
same,"TOXICITY VALUES (XTT), single samples",ME180 cells; [3],0.483 O.D. @ 450/650 nm and 0.456 O.D. @ 450/650 nm and 0.457 O.D. @ 450/650 nm
same,"% CC (XTT, percent of cell control)","ME180 cells; 10 μg/ml, no mucin",95.7%
same,"TOXICITY VALUES (XTT), MEAN","ME180 cells; 10 μg/ml, no mucin",0.486 O.D. @ 450/650 nm
same,"TOXICITY VALUES (XTT), single samples","ME180 cells; 10 μg/ml, no mucin",0.463 O.D. @ 450/650 nm and 0.499 O.D. @ 450/650 nm and 0.497 O.D. @ 450/650 nm
same,"% CC (XTT, percent of cell control)",ME180 cells; [4],95.7%
same,"TOXICITY VALUES (XTT), MEAN",ME180 cells; [4],0.486 O.D. @ 450/650 nm
same,"TOXICITY VALUES (XTT), single samples",ME180 cells; [4],0.463 O.D. @ 450/650 nm and 0.499 O.D. @ 450/650 nm and 0.497 O.D. @ 450/650 nm
same,"% CC (XTT, percent of cell control)","ME180 cells; 32 μg/ml, no mucin",92.5%
same,"TOXICITY VALUES (XTT), MEAN","ME180 cells; 32 μg/ml, no mucin",0.470 O.D. @ 450/650 nm
same,"TOXICITY VALUES (XTT), single samples","ME180 cells; 32 μg/ml, no mucin",0.444 O.D. @ 450/650 nm and 0.466 O.D. @ 450/650 nm and 0.499 O.D. @ 450/650 nm
same,"% CC (XTT, percent of cell control)",ME180 cells; [5],92.5%
same,"TOXICITY VALUES (XTT), MEAN",ME180 cells; [5],0.470 O.D. @ 450/650 nm
same,"TOXICITY VALUES (XTT), single samples",ME180 cells; [5],0.444 O.D. @ 450/650 nm and 0.466 O.D. @ 450/650 nm and 0.499 O.D. @ 450/650 nm
same,"% CC (XTT, percent of cell control)","ME180 cells; 100 μg/ml, no mucin",98.7%
same,"TOXICITY VALUES (XTT), MEAN","ME180 cells; 100 μg/ml, no mucin",0.491 O.D. @ 450/650 nm
same,"TOXICITY VALUES (XTT), single samples","ME180 cells; 100 μg/ml, no mucin",0.479 O.D. @ 450/650 nm and 0.500 O.D. @ 450/650 nm and 0.495 O.D. @ 450/650 nm
same,"% CC (XTT, percent of cell control)",ME180 cells; [6],98.7%
same,"TOXICITY VALUES (XTT), MEAN",ME180 cells; [6],0.491 O.D. @ 450/650 nm
same,"TOXICITY VALUES (XTT), single samples",ME180 cells; [6],0.479 O.D. @ 450/650 nm and 0.500 O.D. @ 450/650 nm and 0.495 O.D. @ 450/650 nm
same,TC50 (concentration at which 50% of cells are eliminated),ME180 cells; no mucin,TC50 = 1 μg/ml
same,TC50 (concentration at which 50% of cells are eliminated),ME180 cells; with 150 μg/ml pig mucin,TC50 = 1 μg/ml
